Results on five compounds are retold here after US11985932B2 (priority 2019, dated 2024).

Series [1] relates to rice blast fungus (Magnaporthe grisea strain K-06). In kind it is in vivo. To be noted: for hyphal elongation of rice blast fungus in the leaf sheath / blast resistance: progeny (third generation; R2) of treated lines, 150 μM (salicylic acid 1 mM), vs Nipponbare, FIG. 11B; for hyphal elongation of Magnaporthe oryzae in the leaf sheath / disease resistance: regenerated rice individuals, callus treated at 150 μM (salicylic acid 1 mM), P<0.05, FIG. 11A.

Series [2] relates to WRKY45 gene. Kind of series: RNA-seq of probenazole-treated rice callus (WRKY45 induction). To be noted: 7th day after probenazole treatment (50, 100 or 150 μM) on dedifferentiation-inducing medium. Format: cell-based, Oryza sativa cv. Nipponbare.
Series [3] has as its system Pseudomonas syringae pv. tabaci. Kind of series: Pseudomonas syringae pv. tabaci inoculation of Nicotiana benthamiana leaves, CFU. In kind it is in vivo. The settings on record: R0 plant of Nicotiana benthamiana of callus treated with probenazole.
Series [4] relates to Botrytis cinerea. In words: Botrytis cinerea inoculation of Nicotiana benthamiana leaves, lesion area. Format: in vivo.
For series [5], the system named is rice callus. In words: Callus survival and redifferentiation under probenazole treatment.
For series [6], the system named is Botrytis cinerea. Kind of series: Botrytis cinerea inoculation of tomato leaves, lesion area. Format: in vivo. The settings on record: regenerated tomato (Micro-Tom) lines, callus treated with 200 μM probenazole; vs WT.

As to `N#Cc1ccccc1NC(=O)c1snc(Cl)c1Cl` [isothianil, isotianil], in series [1], the “hyphal elongation of rice blast fungus in the leaf sheath / blast resistance” value was “significant blast resistance” and the “hyphal elongation of Magnaporthe oryzae in the leaf sheath / disease resistance” value is on record as “significant disease resistance”.
Turning to `CSC(=O)c1cccc2nnsc12` [acibenzolar S-methyl], in series [1], the “hyphal elongation of rice blast fungus in the leaf sheath / blast resistance” value is “significant blast resistance” and the “hyphal elongation of Magnaporthe oryzae in the leaf sheath / disease resistance” value is recorded as “significant disease resistance”.
`C=CCOC1=NS(=O)(=O)c2ccccc21` [probenazole, 3-prop-2-enoxy-1,2-benzothiazole 1,1-dioxide]: the “expression of the WRKY45 gene in callus” value in series [2] is given as “induced”. Further, in series [3], the “growth of Pseudomonas syringae pv. tabaci” value is given as “markedly suppressed”. Further, in series [1], the “hyphal elongation of rice blast fungus in the leaf sheath / blast resistance” value was “significant blast resistance” and the “hyphal elongation of Magnaporthe oryzae in the leaf sheath / disease resistance” value is given as “significant disease resistance”. For the same compound, the Botrytis cinerea resistance result in series [4] (R1, self-fertilized progeny of R0, Nicotiana benthamiana) is “Significant Botrytis cinerea resistance”. Besides, the “expansion of lesions of Botrytis cinerea” value in series [4] (current generation (R0) of regenerated Nicotiana benthamiana, callus treated with 200 μM probenazole 7 to 21 days, vs wild type) was “significantly suppressed”. Further, the “number of meristems formed in callus and appearance rate of regenerated plants” value in series [5] (compared to control not treated with probenazole) is “no significant difference”. Besides, in series [5] (probenazole treatment in dedifferentiation or redifferentiation process), the redifferentiation from callus is given as “not inhibited”. Also, the callus survival rate in series [5] (probenazole-treated rice callus vs control callus) was 100%. In addition, in series [6], the “lesion expansion of Botrytis cinerea in tomato leaves” value was “significantly suppressed”.
On to `O=C(O)c1ccccc1O` [salicylic acid], for which, in series [1], the “hyphal elongation of rice blast fungus in the leaf sheath / blast resistance” value was “significant blast resistance” and the “hyphal elongation of Magnaporthe oryzae in the leaf sheath / disease resistance” value was “significant disease resistance”.
The matching figures for `Cc1ccc(NC(=O)c2snnc2C)cc1Cl` [tiadinil]: “significant blast resistance” and “significant disease resistance”.
